Test results as given in patent publication US9376425B2, “Heterocyclic compounds as MDM2 inhibitors for the treatment of cancer” (AMGEN INC., priority 2011, dated 2016).

Target: T1, human MDM2 (GST-hMDM2 1-188), interaction with biotinylated-p53 (1-83) (Homo sapiens, UniProt Q00987)
T1 construct: Amino acid residues 1-188 of human MDM2 were expressed; made in house; host or cells: Escherichia coli
Assay: improved HTRF assay (HTRF2 assay), inhibition of HDM2-p53 interaction
Type: binding
Settings: 0.2 nM GST-hMDM2, 0.5 nM biotinylated-p53, 100 mM KF
How it was run: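 GST-hMDM2 preincubated 20 min at RT with serially diluted compound, then biotinylated p53 (1-83, E. coli) added for 60 min. Detection with SA-XLent, anti-GST cryptate and KF, equilibrated >4 h; final DMSO 2%. TR-FRET read; % inhibition calculated relative to nutlin-3.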

T1 sequence (Q00987 1-188): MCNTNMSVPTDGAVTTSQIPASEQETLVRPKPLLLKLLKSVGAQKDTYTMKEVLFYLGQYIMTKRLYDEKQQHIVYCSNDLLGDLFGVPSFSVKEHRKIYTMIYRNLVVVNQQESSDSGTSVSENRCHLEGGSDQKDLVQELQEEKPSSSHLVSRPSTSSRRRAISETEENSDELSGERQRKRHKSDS

SMILES	IC50
CC[C@@H](CN(c1ccccc1F)S(=O)(=O)C1CC1)N1C(=O)[C@@H](CC(=O)O)O[C@H](c2cccc(Cl)c2)[C@H]1c1ccc(Cl)s1 (single isomer, unassigned) [Example 217, 2-((2R,5S,6R)-6-(3-chlorophenyl)-5-(5-chlorothiophen-2-yl)-4-((S)-1-(N-(2-fluorophenyl)cyclopropanesulfonamido)butan-2-yl)-3-oxomorpholin-2-yl)acetic acid or 2-((2S,5S,6R)-6-(3-chlorophenyl)-5-(5-chlorothiophen-2-yl)-4-((S)-1-(N-(2-fluorophenyl)cyclopropanesulfonamido)butan-2-yl)-3-oxomorpholin-2-yl)acetic acid]	< 1 nM
CC(C)(C)SC[C@H](C1CC1)N1C(=O)[C@@H](CC(=O)O)O[C@H](c2ccc(Br)c(Cl)c2)[C@H]1c1ccc(Cl)cc1 (single isomer, unassigned) [Example 323, 2-((2R,5R,6R)-6-(4-Bromo-3-chlorophenyl)-4-((S)-2-(tert-butylthio)-1-cyclopropylethyl)-5-(4-chlorophenyl)-3-oxomorpholin-2-yl)acetic acid or 2-((2S,5R,6R)-6-(4-bromo-3-chlorophenyl)-4-((S)-2-(tert-butylthio)-1-cyclopropylethyl)-5-(4-chlorophenyl)-3-oxomorpholin-2-yl)acetic acid]	16 nM
CC(C)(C)S(=O)(=O)C[C@H](C1CC1)N1C(=O)[C@@](C)(CC(=O)O)O[C@H](c2cccc(Cl)c2)[C@H]1c1ccc(Cl)cc1 (single isomer, unassigned) [Example 334, 2-((2R,5R,6R)-4-((S)-2-(tert-Butylsulfonyl)-1-cyclopropylethyl)-6-(3-chlorophenyl)-5-(4-chlorophenyl)-2-methyl-3-oxomorpholin-2-yl)acetic acid or 2-((2S,5R,6R)-4-((S)-2-(tert-butylsulfonyl)-1-cyclopropylethyl)-6-(3-chlorophenyl)-5-(4-chlorophenyl)-2-methyl-3-oxomorpholin-2-yl)acetic acid]	< 1 nM
CC[C@@H](CS(=O)(=O)C(C)C)N1C(=O)[C@@H](CC(=O)O)O[C@H](c2cc(Cl)cc(Cl)c2)[C@H]1c1ccc(Cl)cc1 (single isomer, unassigned) [Example 145, 2-((2R,5R,6R)-5-(4-chlorophenyl)-6-(3,5-dichlorophenyl)-4-((S)-1-(isopropylsulfonyl)butan-2-yl)-3-oxomorpholin-2-yl)acetic acid or 2-((2S,5R,6R)-5-(4-chlorophenyl)-6-(3,5-dichlorophenyl)-4-((S)-1-(isopropylsulfonyl)butan-2-yl)-3-oxomorpholin-2-yl)acetic acid]	8 nM
CC[C@@H](CS(=O)(=O)C(C)(C)C)N1C(=O)[C@@H](CNC(=O)OC(C)(C)C)O[C@H](c2cccc(Cl)c2)[C@H]1c1ccc(Cl)cc1 [Example 377, tert-Butyl (((2R,5R,6R)-4-((S)-1-(tert-utylsulfonyl)butan-2-yl)-6-(3-chlorophenyl)-5-(4-chlorophenyl)-3-oxomorpholin-2-yl)methyl)carbamate and tert-butyl (((2S,5R,6R)-4-((S)-1-(tert-butylsulfonyl)butan-2-yl)-6-(3-chlorophenyl)-5-(4-chlorophenyl)-3-oxomorpholin-2-yl)methyl)carbamate]	86 nM
O=C(O)C[C@H]1O[C@H](c2cccc(Cl)c2)[C@@H](c2ccc(Cl)cc2)N([C@H](CN(c2cc(F)ccc2F)S(=O)(=O)C2CC2)C2CC2)C1=O (single isomer, unassigned) [Example 276, 2-((2R,5R,6R)-6-(3-Chlorophenyl)-5-(4-chlorophenyl)-4-((S)-1-cyclopropyl-2-(N-(2,5-difluorophenyl)cyclopropanesulfonamido)ethyl)-3-oxomorpholin-2-yl)acetic acid or 2-((2S,5R,6R)-6-(3-chlorophenyl)-5-(4-chlorophenyl)-4-((S)-1-cyclopropyl-2-(N-(2,5-difluorophenyl)cyclopropanesulfonamido)ethyl)-3-oxomorpholin-2-yl)acetic acid]	< 1 nM
CC[C@@H](CN(c1ccccc1F)S(=O)(=O)C1CC1)N1C(=O)[C@H](CC(N)=O)O[C@H](c2cccc(Cl)c2)[C@H]1c1ccc(Cl)cc1 (single isomer, unassigned) [Example 241, 2-((2S,5R,6R)-6-(3-chlorophenyl)-5-(4-chlorophenyl)-4-((S)-1-(N-(2-fluorophenyl)cyclopropanesulfonamido)butan-2-yl)-3-oxomorpholin-2-yl)acetamide or 2-((2R,5R,6R)-6-(3-chlorophenyl)-5-(4-chlorophenyl)-4-((S)-1-(N-(2-fluorophenyl)cyclopropanesulfonamido)butan-2-yl)-3-oxomorpholin-2-yl)acetamide]	1 nM
CC[C@@H](CS(=O)(=O)CCN(C)C)N1C(=O)[C@H](CC(=O)O)O[C@H](c2cccc(Cl)c2)[C@H]1c1ccc(Cl)cc1 (single isomer, unassigned) [Example 248, 2-((2S,5R,6R)-6-(3-chlorophenyl)-5-(4-chlorophenyl)-4-((S)-1-((2-(dimethylamino)ethyl)sulfonyl)butan-2-yl)-3-oxomorpholin-2-yl)acetic acid or 2-((2R,5R,6R)-6-(3-chlorophenyl)-5-(4-chlorophenyl)-4-((S)-1-((2-(dimethylamino)ethyl)sulfonyl)butan-2-yl)-3-oxomorpholin-2-yl)acetic acid]	8 nM
CNC(=O)C[C@@H]1O[C@H](c2cccc(Cl)c2)[C@@H](c2ccc(Cl)cc2)N([C@@H](C)CS(=O)(=O)C(C)(C)C)C1=O (single isomer, unassigned) [Example 227, 2-((2S,5R,6R)-4-((S)-1-(tert-butylsulfonyl)propan-2-yl)-6-(3-chlorophenyl)-5-(4-chlorophenyl)-3-oxomorpholin-2-yl)-N-methylacetamide or 2-((2R,5R,6R)-4-((S)-1-(tert-butylsulfonyl)propan-2-yl)-6-(3-chlorophenyl)-5-(4-chlorophenyl)-3-oxomorpholin-2-yl)-N-methylacetamide]	11 nM
CC[C@@H](CS(=O)(=O)C(C)(C)CC)N1C(=O)[C@@H](CC(=O)O)O[C@H](c2cccc(Cl)c2)[C@H]1c1ccc(Cl)cc1 (single isomer, unassigned) [Example 122, 2-((2R,5R,6R)-6-(3-Chlorophenyl)-5-(4-chlorophenyl)-3-oxo-4-((S)-1-(tert-pentylsulfonyl)butan-2-yl)morpholin-2-yl)acetic acid or 2-((2S,5R,6R)-6-(3-Chlorophenyl)-5-(4-chlorophenyl)-3-oxo-4-((S)-1-(tert-pentylsulfonyl)butan-2-yl)morpholin-2-yl)acetic acid]	< 1 nM
CN(C(C)(C)C)S(=O)(=O)C[C@H](C1CC1)N1C(=O)[C@@H](CC(=O)O)O[C@H](c2cccc(Cl)c2)[C@H]1c1ccc(Cl)cc1 (single isomer, unassigned) [Example 301, 2-((2R,5R,6R)-4-((S)-2-(N-(tert-Butyl)-N-methylsulfamoyl)-1-cyclopropylethyl)-6-(3-chlorophenyl)-5-(4-chlorophenyl)-3-oxomorpholin-2-yl)acetic acid or 2-((2S,5R,6R)-4-((S)-2-(N-(tert-butyl)-N-methylsulfamoyl)-1-cyclopropylethyl)-6-(3-chlorophenyl)-5-(4-chlorophenyl)-3-oxomorpholin-2-yl)acetic acid]	< 1 nM
C[C@@H]1CCCN1S(=O)(=O)C[C@H](C1CC1)N1C(=O)[C@@H](CC(=O)O)O[C@H](c2cccc(Cl)c2)[C@H]1c1ccc(Cl)cc1 (single isomer, unassigned) [Example 304, 2-((2R,5R,6R)-6-(3-Chlorophenyl)-5-(4-chlorophenyl)-4-((S)-1-cyclopropyl-2-(((R)-2-methylpyrrolidin-1-yl)sulfonyl)ethyl)-3-oxomorpholin-2-yl)acetic acid or 2-((2S,5R,6R)-6-(3-chlorophenyl)-5-(4-chlorophenyl)-4-((S)-1-cyclopropyl-2-(((R)-2-methylpyrrolidin-1-yl)sulfonyl)ethyl)-3-oxomorpholin-2-yl)acetic acid]	< 1 nM
Cc1ccc([C@H]2O[C@H](CC(=O)O)C(=O)N([C@H](CS(=O)(=O)C(C)(C)C)C3CC3)[C@@H]2c2ccc(Cl)cc2)cc1Cl [Example 327, 2-((2R,5R,6R)-4-((S)-2-(tert-Butylsulfonyl)-1-cyclopropylethyl)-6-(3-chloro-4-methylphenyl)-5-(4-chlorophenyl)-3-oxomorpholin-2-yl)acetic acid]	51 nM
CC[C@@H]([C@H](C)S(=O)(=O)C(C)C)N1C(=O)[C@@H](CC(=O)O)O[C@H](c2cccc(Cl)c2)[C@H]1c1ccc(Cl)cc1 (single isomer, unassigned) [Example 416]	4 nM
O=C(O)C[C@H]1O[C@H](c2cccc(Cl)c2)[C@@H](c2ccc(Cl)cc2)N([C@H](CN(c2ncccc2F)S(=O)(=O)C2CC2)C2CC2)C1=O (single isomer, unassigned) [Example 188, 2-((2R,5R,6R)-6-(3-chlorophenyl)-5-(4-chlorophenyl)-4-((S)-1-cyclopropyl-2-(N-(3-fluoropyridin-2-yl)cyclopropanesulfonamido)ethyl)-3-oxomorpholin-2-yl)acetic acid or 2-((2S,5R,6R)-6-(3-chlorophenyl)-5-(4-chlorophenyl)-4-((S)-1-cyclopropyl-2-(N-(3-fluoropyridin-2-yl)cyclopropanesulfonamido)ethyl)-3-oxomorpholin-2-yl)acetic acid]	< 1 nM
CC(C)(C)S(=O)(=O)C[C@H](C1CC1)N1C(=O)[C@@H](CC(=O)O)O[C@H](c2cccc(Cl)c2)[C@H]1c1ccc(Cl)c(F)c1 (single isomer, unassigned) [Example 308, 2-((2R,5R,6R)-4-((S)-2-(tert-Butylsulfonyl)-1-cyclopropylethyl)-5-(4-chloro-3-fluorophenyl)-6-(3-chlorophenyl)-3-oxomorpholin-2-yl)acetic acid or 2-((2S,5R,6R)-4-((S)-2-(tert-butylsulfonyl)-1-cyclopropylethyl)-5-(4-chloro-3-fluorophenyl)-6-(3-chlorophenyl)-3-oxomorpholin-2-yl)acetic acid]	< 1 nM
